Assay results: US8722720B2, “Imidazole derivatives as IDO inhibitors” (NewLink Genetics Corporation, priority 2010, dated 2014)
pIC50: −log10 of the molar value.

Molecular target: T1, purified human IDO protein (Homo sapiens, UniProt P14902)
T1 construct: 2 extra amino acids (linker from the BglII cloning site of pQE70); made in house; host or cells: E. coli M15(pREP4) with plasmid pQE70-hIDO
Assay: Enzymatic IDO assay (kynurenine production, absorbance at 480 nm)
Type: biochemical
Details: recombinant human IDO; values reported in ranges; read-out: hIDO IC50
Method: The inhibitors were initially diluted in DMSO at 100 mM and were diluted in potassium phosphate 50 mM, added to the reaction mixture at final concentrations raging from 1 mM to 5 nM and preincubated with the enzyme for 5 min at 25° C. The reaction was started by addition of L-tryptophan to 200 μM and incubated 15 min at 37° C. The reaction was stopped by addition of 0.5 vol of 30% trichloroacetic acid and incubated 30 min at 60° C. to hydrolyze N-formylkynurenine to kynurenine. The reaction was centrifuged at 3400 g for 5 min to remove precipitated protein and the supernatant was reacted with 2% (w/v) of p-dimethylaminobenzaldehyde in acetic acid. The reaction was incubated 10 min at 25° C. and read at 480 nm in a spectrophotometer. […] Nonlinear regressions and determination of the IC50 values were performed using the GraphPad Prism 4 software.

T1 sequence (P14902 whole entry P110S/E119G): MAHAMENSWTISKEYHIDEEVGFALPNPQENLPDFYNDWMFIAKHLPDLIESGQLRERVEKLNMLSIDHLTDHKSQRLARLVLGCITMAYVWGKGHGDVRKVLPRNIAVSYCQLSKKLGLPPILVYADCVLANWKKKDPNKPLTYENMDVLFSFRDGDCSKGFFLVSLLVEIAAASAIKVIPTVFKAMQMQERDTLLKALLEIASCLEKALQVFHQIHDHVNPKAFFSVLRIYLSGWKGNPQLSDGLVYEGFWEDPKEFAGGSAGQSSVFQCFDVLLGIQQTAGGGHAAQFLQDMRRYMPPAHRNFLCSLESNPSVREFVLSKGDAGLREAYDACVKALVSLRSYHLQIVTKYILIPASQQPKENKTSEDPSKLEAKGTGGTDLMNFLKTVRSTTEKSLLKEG

pIC50 | SMILES
> 6.00 | N[C@@H]1CCCC[C@H]1NC(=O)Nc1ccc(CCOc2ccccc2-c2c[nH]cn2)c(Cl)c1 (racemic) [compound 1361, 1-(4-(2-(2-(1H-imidazol-4-yl)phenoxy)ethyl)-3-chlorophenyl)-3-(±(1R,2R)-2-aminocyclohexyl)urea]
> 6.00 | N[C@H]1CCCC[C@H]1NC(=O)Nc1ccc(CCOc2ccccc2-c2c[nH]cn2)c(Cl)c1 (racemic) [compound 1368, 1-(4-(2-(2-(1H-imidazol-4-yl)phenoxy)ethyl)-3-chlorophenyl)-3-(±(1R,2S)-2-aminocyclohexyl)urea]
< 4.00 | O=C(O)c1ccccc1-c1c[nH]cn1 [compound 926, 2-(1H-imidazol-4-yl)benzoic acid]
< 4.00 | COC(=O)c1ccccc1CCOc1ccccc1-c1c[nH]cn1 [compound 934, methyl 2-(2-(2-(1H-imidazol-4-yl)phenoxy)ethyl) benzoate]
< 4.00 | COc1ccccc1-c1cnco1 [compound 945, 5-(2-methoxyphenyl)oxazole]
4.00 to 5.00 | O=C(NCc1cccc(Cl)c1)C1CCC(=CCOc2ccccc2-c2c[nH]cn2)CC1 (centres unmarked) [compound 947, 4-(2-(2-(1H-imidazol-4-yl)phenoxy)ethylidene)-N-(3-chlorobenzyl)cyclohexanecarbox-amide]
4.00 to 5.00 | c1cc(-c2c[nH]cn2)c2[nH]ccc2c1 [compound 948, 7-(1H-imidazol-4-yl)-1H-indole]
< 4.00 | c1nc(-c2ccc3[nH]ccc3c2)c[nH]1 [compound 949, 5-(1H-imidazol-4-yl)-1H-indole]
< 4.00 | c1cnc2c(-c3c[nH]cn3)cccc2c1 [compound 952, 8-(1H-imidazol-4-yl)quinoline]
4.00 to 5.00 | O=C(COc1ccccc1-c1c[nH]cn1)c1cccc(Br)c1 [compound 953, 2-(2-(1H-imidazol-4-yl)phenoxy)-1-(3-bromo-phenyl)ethanone]
4.00 to 5.00 | OC(COc1ccccc1-c1c[nH]cn1)c1cccc(Br)c1 (centres unmarked) [compound 954, 2-(2-(1H-imidazol-4-yl)phenoxy)-1-(3-bromo-phenyl)ethanol]
< 4.00 | c1nc(-c2ccc3c(c2)OCO3)c[nH]1 [compound 955, 4-(benzo[d][1,3]dioxol-5-yl)-1H-imidazole]
< 4.00 | Oc1c(-c2c[nH]cn2)cc(Cl)c2cccnc12 [compound 956, 5-chloro-7-(1H-imidazol-4-yl)quinolin-8-ol]
4.00 to 5.00 | c1ccc2c(-c3cnc[nH]3)cccc2c1 [compound 957, 5-(naphthalen-1-yl)-1H-imidazole]
4.00 to 5.00 | CC(=O)NCc1cccc(COc2ccccc2-c2c[nH]cn2)c1 [compound 958, N-(3-((2-(1H-imidazol-4-yl)phenoxy)methyl)benzyl)acetamide]
4.00 to 5.00 | CC(=O)N(Cc1ccccc1)Cc1cccc(COc2ccccc2-c2c[nH]cn2)c1 [compound 959, N-(3-((2-(1H-imidazol-4-yl)phenoxy)methyl)benzyl)-N-benzylacetamide]
4.00 to 5.00 | c1nc(-c2ccc3cc[nH]c3c2)c[nH]1 [compound 961, 6-(1H-imidazol-4-yl)-1H-indole]
4.00 to 5.00 | c1cc(-c2c[nH]cn2)c2nsnc2c1 [compound 962, 4-(1H-imidazol-4-yl)benzo[c][1,2,5]thiadiazole]
< 4.00 | c1cnc2[nH]cc(-c3c[nH]cn3)c2c1 [compound 964, 3-(1H-imidazol-4-yl)-1H-pyrrolo[2,3-b]pyridine]
5.00 to 6.00 | CC(C)(C)C(=O)Oc1ccc(Br)cc1-c1c[nH]cn1 [compound 967, 4-bromo-2-(1H-imidazol-4-yl)phenyl pivalate]
< 4.00 | Clc1ccc2c(-c3c[nH]cn3)ccnc2c1 [compound 969, 7-chloro-4-(1H-imidazol-4-yl)quinoline]
< 4.00 | c1nc(-c2ccc3c(c2)OCCO3)c[nH]1 [compound 971, 4-(2,3-dihydrobenzo[b][1,4]dioxin-6-yl)-1H-imidazole]

pIC50 | SMILES
< 4.00 | c1cnc(-c2c[nH]cn2)nc1 [compound 972, 2-(1H-imidazol-4-yl)pyrimidine]
4.00 to 5.00 | c1ccc2[nH]c(-c3c[nH]cn3)cc2c1 [compound 975, 2-(1H-imidazol-4-yl)-1H-indole]
4.00 to 5.00 | CCC(O)(COc1ccccc1-c1c[nH]cn1)c1cccs1 (centres unmarked) [compound 976, 1-(2-(1H-imidazol-4-yl)phenoxy)-2-(thiophen-2-yl)butan-2-ol]
4.00 to 5.00 | CC(O)(COc1ccccc1-c1c[nH]cn1)c1cccs1 (centres unmarked) [compound 977, 1-(2-(1H-imidazol-4-yl)phenoxy)-2-(thiophen-2-yl)propan-2-ol]
4.00 to 5.00 | CC(COc1ccccc1-c1c[nH]cn1)c1ccccc1 (centres unmarked) [compound 978, 4-(2-(2-phenylpropoxy)phenyl)-1H-imidazole]
< 4.00 | O=C(O)c1ccccc1C(=O)COc1ccccc1-c1c[nH]cn1 [compound 979, 2-(2-(2-(1H-imidazol-4-yl)phenoxy)acetyl) benzoic acid]
< 4.00 | c1cc(-c2c[nH]cn2)ccn1 [compound 982, 4-(1H-imidazol-4-yl)pyridine]
4.00 to 5.00 | c1ccc(OCc2cccc(-c3c[nH]cn3)c2)cc1 [compound 996, 4-(3-(phenoxymethyl)phenyl)-1H-imidazole]
5.00 to 6.00 | Clc1ccc(COc2ccccc2-c2c[nH]cn2)cc1Cl [compound 1003, 4-(2-(3,4-dichlorobenzyloxy)phenyl)-1H-imidazole]
< 4.00 | c1ccc2c(-c3c[nH]cn3)cncc2c1 [compound 1004, 4-(1H-imidazol-4-yl)isoquinoline]
4.00 to 5.00 | Oc1ccc(-c2ccccc2)cc1-c1c[nH]cn1 [compound 1005, 3-(1H-imidazol-4-yl)biphenyl-4-ol]
< 4.00 | c1ccc2c(-c3c[nH]cn3)ccnc2c1 [compound 1007, 4-(1H-imidazol-4-yl)quinoline]
< 4.00 | COc1cccc(-c2c[nH]cn2)n1 [compound 1009, 2-(1H-imidazol-4-yl)-6-methoxypyridine]
4.00 to 5.00 | Oc1cccc(OCCCc2ccccc2)c1-c1cnc[nH]1 [compound 1010, 2-(1H-imidazol-5-yl)-3-(3-phenylpropoxy) phenol]
< 4.00 | Oc1cccc(-c2c[nH]cn2)n1 [compound 1011, 6-(1H-imidazol-4-yl)pyridin-2-ol]
< 4.00 | COc1ncccc1-c1c[nH]cn1 [compound 1012, 3-(1H-imidazol-4-yl)-2-methoxypyridine]
4.00 to 5.00 | COc1cccc2c1-c1cncn1C2 [compound 1013, 9-methoxy-5H-imidazo[5,1-a]isoindole]
4.00 to 5.00 | CCOC(=O)/C=C/c1ccccc1-c1c[nH]cn1 [compound 1014, (E)-ethyl 3-(2-(1H-imidazol-4-yl)phenyl)acrylate]
< 4.00 | Oc1ncccc1-c1c[nH]cn1 [compound 1015, 3-(1H-imidazol-4-yl)pyridin-2-ol]
4.00 to 5.00 | Brc1ccc(OCCC2CCCCC2)c(-c2c[nH]cn2)c1 [compound 1016, 4-(5-bromo-2-(2-cyclohexylethoxy)phenyl)-1H-imidazole]
5.00 to 6.00 | O=C(COc1ccccc1-c1c[nH]cn1)c1ccc2ccsc2c1 [compound 1018, 2-(2-(1H-imidazol-4-yl)phenoxy)-1-(benzo[b]thiophen-6-yl)ethanone]

SMILES | pIC50
OC(c1ccccc1)c1c[nH]cn1 (centres unmarked) [compound 1006, (1H-imidazol-4-yl)(phenyl)methanol] | < 4.00
